According to ChEMBL document CHEMBL1135718, “CoMFA and CoMSIA 3D QSAR and docking studies on conformationally-restrained cinnamoyl HIV-1 integrase inhibitors: exploration of a binding mode at the active site” (J Med Chem, 2002):

molecular target: Human immunodeficiency virus type 1 integrase (Human immunodeficiency virus 1, UniProt Q7ZJM1); test: Inhibitory activity against HIV-1 Integrase (HIV-1-IN)
Sequence (Q7ZJM1 whole entry): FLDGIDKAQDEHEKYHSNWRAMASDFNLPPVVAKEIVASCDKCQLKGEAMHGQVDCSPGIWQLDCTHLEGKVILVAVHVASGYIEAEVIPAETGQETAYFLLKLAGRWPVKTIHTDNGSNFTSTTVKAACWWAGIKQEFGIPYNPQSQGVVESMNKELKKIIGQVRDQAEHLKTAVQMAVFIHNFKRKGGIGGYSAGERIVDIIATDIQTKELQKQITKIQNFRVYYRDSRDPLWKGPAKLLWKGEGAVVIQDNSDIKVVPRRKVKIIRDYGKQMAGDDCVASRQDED

SMILES | IC50 [µM]
COc1ccc(/C=C/C(=O)/C=C(O)/C=C/c2ccc(OC)c(OC)c2)cc1OC | 100
O=C(/C=C(O)/C=C/c1ccccc1)/C=C/c1ccccc1 | 100
COc1ccc(/C=C/C(=O)OCCc2ccccc2)cc1OC | 100
COOC(=O)c1cc2ccc(O)c(O)c2cn1 | 14.1
COOC(=O)c1cc2cc(O)c(O)cc2cn1 | 100
O=C(NCc1ccccc1)c1cc2cc(O)c(O)cc2cn1 | 100
COOC(=O)c1ccc2c(O)c(O)ccc2c1 | 7.94
COc1ccc(/C=C/C(=O)/C=C/c2ccc(OC)c(OC)c2)cc1OC | 100
COc1cc(/C=C2\CCC/C(=C\c3ccc(O)c(OC)c3)C2=O)ccc1O [CYCLOVALONE] | 100

Now from value to compound:

IC50 [µM] | SMILES
100 | O=C(/C=C/c1ccc(O)c(O)c1)CCc1ccccc1
100 | O=C(/C=C/c1ccc(O)cc1)/C=C/c1ccc(O)cc1
100 | O=C(/C=C/c1cc(O)ccc1O)OCCc1ccccc1
100 | O=C(/C=C/c1ccc(F)c(F)c1)OCCc1ccccc1
100 | COc1cc(/C=C/C(=O)OCCc2ccccc2)ccc1O
100 | O=C(/C=C/c1ccc(O)cc1)CC(=O)/C=C/c1ccc(O)cc1 [BISDEMETHOXYCURCUMIN]
100 | CCOC(=O)/C=C/c1ccc(O)c(O)c1 [ETHYL CAFFEATE]
100 | O=C(/C=C/c1ccc(O)cc1)c1ccc(O)cc1O [ISOLIQUIRITIGENIN]
100 | COC(=O)/C=C/c1ccc(O)c(O)c1 [METHYLCAFFEATE]
